ChEMBL document CHEMBL3351456, “Synthesis and antiviral activities of 3-deaza-3-fluoroaristeromycin and its 5' analogues” (Bioorg Med Chem, 2014)
pEC50, pIC50: −log10 of the molar value.

Tests used:
[1] = Inhibition of rabbit erythrocyte SAHase using S-adenosyl-L-homocysteine as substrate assessed as L-homocysteine formation incubated for 5 mins prior to substrate addition measured after 1 hr; design: species or system Oryctolagus cuniculus
[2] = system: Monkeypox virus; assay: Antiviral activity against Monkeypox virus infected in African green monkey Vero E6 cells; assay type: functional, organism-based
[3] = Cytotoxicity against African green monkey Vero E6 cells; assay type: cell-based; conditions: chlorocebus sabaeus
[4] = Selectivity index, ratio of CC50 for African green monkey Vero E6 cells to IC50 for Monkeypox virus; assay type: functional
[5] = system: Vaccinia virus; assay: Antiviral activity against Vaccinia virus infected in HFF cells; assay type: functional, organism-based; conditions: Orthopoxvirus vaccinia
[6] = Cytotoxicity against HFF cells; assay type: cell-based; conditions: human
[7] = Selectivity index, ratio of CC50 for HFF cells to IC50 for Vaccinia virus; assay type: functional
[8] = system: Human betaherpesvirus 5; assay: Antiviral activity against human cytomegalovirus infected in HFF cells; assay type: functional, organism-based; conditions: Human betaherpesvirus 5, HFF
[9] = Selectivity index, ratio of CC50 for HFF cells to IC50 for human cytomegalovirus; assay type: functional
[10] = system: Human papillomavirus; assay: Antiviral activity against Human papillomavirus infected in HEK293 cells; assay type: functional, organism-based
[11] = Cytotoxicity against HEK293 cells; assay type: cell-based; conditions: human
[12] = system: Measles morbillivirus; assay: Antiviral activity against Measles virus infected in human MRC5 cells; assay type: functional, organism-based
[13] = Cytotoxicity against human MRC5 cells; assay type: cell-based
[14] = Selectivity index, ratio of CC50 for human MRC5 cells to IC50 for Measles virus; assay type: functional
[15] = system: Rift Valley fever virus; assay: Antiviral activity against Rift Valley fever virus infected in African green monkey Vero 76 cells; assay type: functional, organism-based
[16] = Cytotoxicity against African green monkey Vero 76 cells; assay type: cell-based; conditions: chlorocebus sabaeus
[17] = Selectivity index, ratio of CC50 for African green monkey Vero 76 cells to IC50 for Rift Valley fever virus; assay type: functional
[18] = system: Pichinde virus; assay: Antiviral activity against Pichinde virus infected in African green monkey Vero 76 cells; assay type: functional, organism-based
[19] = Selectivity index, ratio of CC50 for African green monkey Vero cells to IC50 for Pichinde virus; assay type: functional
[20] = system: Tacaribe virus; assay: Antiviral activity against Tacaribe virus infected in African green monkey Vero 76 cells; assay type: functional, organism-based; conditions: Mammarenavirus tacaribeense
[21] = Selectivity index, ratio of CC50 for African green monkey Vero cells to IC50 for Tacaribe virus; assay type: functional
[22] = Cytotoxicity against African green monkey Vero cells; assay type: cell-based; conditions: chlorocebus sabaeus
[23] = system: Hepatitis B virus; assay: Antiviral activity against HBV; assay type: functional, organism-based
[24] = Selectivity index, ratio of CC50 for HEK293 cells to IC50 for Human papillomavirus; assay type: functional

SMILES	pIC50 [1]	pIC50 [2]	CC50 [3]	Ratio CC50/IC50 [4]	pIC50 [5]	CC50 [6]	Ratio CC50/IC50 [7]	pIC50 [8]	Ratio CC50/IC50 [9]	pIC50 [10]	CC50 [11]	pIC50 [12]	CC50 [13]	Ratio CC50/IC50 [14]	pIC50 [15]	CC50 [16]	Ratio CC50/IC50 [17]	pIC50 [18]	pIC50 [20]	CC50 [22]	also measured
Nc1ncc(F)c2c1ncn2[C@@H]1C[C@H](CCO)[C@@H](O)[C@H]1O	8.05	> 6.49	> 100 µM	>313	4.26	> 264 µM	>5	5.83	177	< 4.00	> 100 µM	> 6.49	> 100 µM	>313	4.47	> 300 µM	>10	4.52	5.19	128 µM	Ratio CC50/IC50 [19]: 5.7; Ratio CC50/IC50 [21]: 20
Nc1ncc(F)c2c1ncn2[C@@H]1C[C@H](CO)[C@@H](O)[C@H]1O	7.54	> 6.49	> 100 µM	>313	4.32	> 178 µM	>6	< 4.22	<3	< 4.00	> 100 µM	> 6.49	> 100 µM	>313	4.25	> 300 µM	>6.3	4.62	4.85	159 µM	Ratio CC50/IC50 [19]: 7; Ratio CC50/IC50 [21]: 11
Nc1ncc(F)c2c1ncn2[C@@H]1O[C@H](CO)[C@@H](O)[C@H]1O																					pEC50 [23]: 5.04
Nc1ncc(F)c2c1ncn2[C@@H]1C[C@H](O)[C@@H](O)[C@H]1O	8.24	> 6.49	> 100 µM	>313	3.85	> 300 µM	>2	< 3.52		4.62	> 100 µM	> 6.49	> 100 µM	>313	< 3.52	> 300 µM		< 3.52	< 3.52	> 300 µM	Ratio CC50/IC50 [24]: >4
Nc1nccc2c1ncn2[C@@H]1C=C(CO)[C@@H](O)[C@H]1O	8.03																				
